# Results reported in patent US6172091A, “1,2-Disubstituted cyclopropanes” (Ortho-McNeil Pharmaceutical, Inc., priority 1999, dated 2001).
# Legend:
# [1] = tested on: parathyroid hormone (PTH); test: parathyroid hormone (PTH) suppression in a rat model; assay type: in vivo; settings: 30 mg/kg test compound, levels measured after 15 minutes; for In Vivo: % blood serum PTH vs. vehicle: oral, 30 mg/kg; for change in vivo at 30 mg/kg: Rattus norvegicus, po, 0.25 h, read-out: In Vivo: % blood serum PTH vs. vehicle
# Method: (§1) In vitro potency is measured via calcium mobilization in a fluorescence assay using HEK 293 cells transfected to express the same calcium sensing receptor as found in the human parathyroid gland. In this assay calcium-sensing receptor agonists and antagonists are detected. The assay is conducted in a 96-well plate format with the use of FLIPR (fluorescent imaging plate reader; Molecular Devices, Sunnyvale, Calif.). The HEK 293 cell media is replaced with the fluorescence dye FLUO-3AM and Pluronic detergent in FLIPR assay buffer. Cells are incubated 60 min (in the dark, at room temperature), then washed with assay buffer and placed in FLIPR. Images are collected by FLIPR in the absence of test compound, then in the presence of test compound (at 25 µM) and then after addition of a calcium challenge (at 1 mM). In the agonist assay the difference between maximum and minimum fluorescence values is measured following test compound addition. Hits have a change in fluorescence greater than or equal to 50% of that seen with a 1 mM calcium standard. In the antagonist assay the difference between maximum and minimum fluorescence values is measured following the calcium challenge addition. When compared to challenge in the absence of test compound, hits reduce fluorescence by at least 50%. In vivo activity is measured via parathyroid hormone (PTH) supression by test compounds in a rat model. Compound is administered orally using 0.5% Tween 80 in distilled water as vehicle, with a volume of approximately 10 mL/kg body weight. Blood samples are taken at 15 minutes (and 4 h if required) post oral dosing. Serum PTH levels are determined with an immunoradiometric assay.
# (§2) Not all compounds were tested in each of the screens. […] Each entry represents a mixture of cis and trans cyclopropanes (R,S; S,R; R,R; S,S) with R absolute configuration when R^3=CH3. Table 2 lists compounds that are trans at the cyclopropane (R,R; S,S) with R absolute configuration at the benzylamine position, or without stereochemistry at the benzylamine. Table 3 lists compounds with R,R absolute stereochemistry at the cyclopropane and a mixture of stereochemistry at the benzylamine position. 20. In vitro data in Table 1 is percent activation of the calcium-sensing receptor versus baseline. In vitro data in Tables 2-7 is expressed as a CS50, where potency is at 50% of the calcium standard potency, and the unit is μM. In vivo data represents % blood serum PTH vs. vehicle at 30 mg/kg test compound, levels measured after 15 minutes.
# [2] = molecular target: T1, calcium sensing receptor as found in the human parathyroid gland (Homo sapiens, UniProt P41180); test: calcium mobilization fluorescence (FLIPR) assay, agonist mode; assay type: cell-based; settings: transfected HEK 293 cells; 1 mM calcium standard; Tables 2-7; read-out: In Vitro: CS50, where potency is at 50% of the calcium standard potency
# T1 construct: expressed in transfected cells; host or cells: HEK 293
# T1 sequence (P41180 20-1078): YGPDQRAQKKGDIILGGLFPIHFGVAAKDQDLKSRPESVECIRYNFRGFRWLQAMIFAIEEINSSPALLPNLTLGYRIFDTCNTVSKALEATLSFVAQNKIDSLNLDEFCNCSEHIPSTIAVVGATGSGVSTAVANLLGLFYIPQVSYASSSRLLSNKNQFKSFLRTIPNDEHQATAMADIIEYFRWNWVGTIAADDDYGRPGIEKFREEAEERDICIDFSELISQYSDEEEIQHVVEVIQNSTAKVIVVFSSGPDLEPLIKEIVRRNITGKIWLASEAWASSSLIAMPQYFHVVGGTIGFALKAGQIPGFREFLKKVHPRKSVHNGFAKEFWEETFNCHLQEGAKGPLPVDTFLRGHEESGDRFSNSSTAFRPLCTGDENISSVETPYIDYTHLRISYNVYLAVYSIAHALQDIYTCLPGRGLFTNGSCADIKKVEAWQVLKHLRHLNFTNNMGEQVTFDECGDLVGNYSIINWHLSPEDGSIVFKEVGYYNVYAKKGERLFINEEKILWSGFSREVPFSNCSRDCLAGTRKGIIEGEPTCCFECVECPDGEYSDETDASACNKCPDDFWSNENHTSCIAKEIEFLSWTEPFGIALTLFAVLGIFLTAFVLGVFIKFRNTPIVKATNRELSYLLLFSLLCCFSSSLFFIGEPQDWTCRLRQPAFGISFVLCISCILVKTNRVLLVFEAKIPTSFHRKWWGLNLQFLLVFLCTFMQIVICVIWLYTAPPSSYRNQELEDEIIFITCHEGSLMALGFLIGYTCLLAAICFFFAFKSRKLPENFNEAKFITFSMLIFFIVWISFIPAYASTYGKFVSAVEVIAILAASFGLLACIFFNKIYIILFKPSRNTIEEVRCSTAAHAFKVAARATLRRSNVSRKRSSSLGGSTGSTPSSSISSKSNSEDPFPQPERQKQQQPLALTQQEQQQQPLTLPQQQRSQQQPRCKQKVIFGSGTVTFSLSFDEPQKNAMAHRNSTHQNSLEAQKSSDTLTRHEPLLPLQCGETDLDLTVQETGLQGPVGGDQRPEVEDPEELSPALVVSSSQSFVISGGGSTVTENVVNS
# Method: as §1, §2
Compound,EC50 [2] [µM],In Vivo: % blood serum PTH vs. vehicle [1] [%],change in vivo at 30 mg/kg [1] [%]
COc1cccc([C@@H](C)NC[C@@H]2C[C@H]2c2cccc(F)c2)c1 [Compound 22],9.3,-93.4,–
COc1cccc([C@@H](C)NCC2CC2c2ccc(F)cc2)c1 (stereo partly drawn) [Compound 23],13.5,–,-55
COc1cccc([C@@H](C)NC[C@@H]2C[C@@H]2c2ccccc2)c1 [Compound 61],11.2,–,0
CC(NC[C@@H]1C[C@H]1c1ccccc1)c1cccc(F)c1 (stereo partly drawn) [Compound 45],> 25,–,-19.6
COc1cccc([C@H](C)NC[C@H]2C[C@H]2c2ccccc2)c1 [Compound 65],> 25,–,-38.8
CCc1cccc(C(C)NC[C@@H]2C[C@H]2c2ccccc2)c1 (stereo partly drawn) [Compound 42],> 25,–,-78.9
COc1cccc([C@H](C)NC[C@@H]2C[C@@H]2c2ccccc2)c1 [Compound 66],> 25,–,-61.8
COc1cccc([C@@H](C)NC[C@H]2C[C@H]2c2ccccc2)c1 [Compound 62],17.6,–,0
CCC(=O)N(C[C@@H]1C[C@H]1c1ccccc1)[C@H](C)c1cccc(OC)c1 [Compound 54],> 25,–,-33.7
c1ccc([C@@H]2C[C@H]2CNCc2ccncc2)cc1 (relative stereo) [Compound 30],> 25,–,70.1
"CCC(NC[C@@H]1C[C@H]1c1ccccc1)c1cccc(OC)c1 (stereo partly drawn) [Compound 43, N-((R,R)-2-phenylcyclopropanylmethyl)-1-(3-methoxyphenyl)propylamine]",> 25,–,-6.3
COc1cccc(CNC[C@@H]2C[C@H]2c2ccccc2)c1 (relative stereo) [Compound 31],> 25,–,-26.5

# Continued, in another order:
EC50 [2] [µM],Compound,In Vivo: % blood serum PTH vs. vehicle [1] [%],change in vivo at 30 mg/kg [1] [%]
11,"COc1cccc([C@@H](C)NC[C@@H]2C[C@H]2c2cccc(F)c2)c1 (mixture of isomers) [Compound 20, N-(trans-2-(3-fluorophenyl)cyclopropanylmethyl)-1-(R)-(3-methoxyphenyl)ethylamine]",-95.2,–
> 25,COc1cccc([C@@H](C)NC[C@H]2C[C@H]2c2cc(C)ccc2C)c1 [Compound 69],–,-53.9
10.1,COc1cccc([C@@H](C)NCC2C(C)C2c2ccccc2)c1 (stereo partly drawn) [Compound 67],–,-92.9
52.2,COc1cccc([C@@H](C)NCC2CC2c2ccccc2C(F)(F)F)c1 (stereo partly drawn) [Compound 14],–,-34.7
8.7,C[C@@H](NC[C@@H]1C[C@H]1c1ccccc1)c1cccc(O)c1 [Compound 48],–,-41.7
> 25,COc1cccc([C@@H](C)N(C[C@@H]2C[C@H]2c2ccccc2)C(C)=O)c1 [Compound 53],–,-6.4
> 25,COc1cccc([C@@H](C)N(C[C@@H]2C[C@H]2c2ccccc2)C(=O)CNC(=O)OC(C)(C)C)c1 [Compound 58],–,-12.7
> 25,CC(NC[C@@H]1C[C@H]1c1ccccc1)c1ccc2c(c1)OCO2 (stereo partly drawn) [Compound 47],–,-67.3
> 25,COC(=O)N(C[C@@H]1C[C@H]1c1ccccc1)[C@H](C)c1cccc(OC)c1 [Compound 56],–,-40.9
9.6,"COc1cccc([C@@H](C)NCC2CC2c2ccccc2F)c1 (single isomer, unassigned) [Compound 19]",-89.2,–
> 25,COc1cccc([C@@H](C)N(C[C@@H]2C[C@H]2c2ccccc2)C(=O)OCC(C)C)c1 [Compound 57],–,-5.3
> 25,COc1cccc(C(C)(C)NC[C@@H]2C[C@H]2c2ccccc2)c1 [Compound 44],–,-25.8
